Legend:
[1] = cells; settings: Homo sapiens, MDA-MB-231, 48 h
Description: Downregulation of H3K9me2 level in human MDA-MB-231 cells measured after 48 hrs by Western blot analysis

[2] = system: MDA-MB-231; experiment: Antiproliferative activity against human MDA-MB-231 cells by MTT assay; assay type: functional, cell-based

IC50 [1] [nM]	EC50 [2] [nM]	Structure (SMILES)
81		COc1cc2c(NC3CCN(C(C)C)CC3)nc(C3CCCCC3)nc2cc1OCCCN1CCCC1
500	2700	COc1cc2nc(N3CCCN(C)CC3)nc(NC3CCN(Cc4ccccc4)CC3)c2cc1OC

From ChEMBL document CHEMBL5532707, “SETDB1 as a cancer target: challenges and perspectives in drug design” (RSC Med Chem, 2024)
